Usually CC50 stands for the concentration at which the toxic effect on the cells reaches its halfway point. The term IC50 denotes the concentration that inhibits the measured activity by half.

Structures are written as SMILES. ≈ marks a conversion by molar mass, not a printed value. Where two headings read alike, the source gives them in different places. Residues, ends and D or L forms follow the SMILES beside them.

Series [1] deals with P. aeruginosa. In words: microbe, parasite or virus in culture. The following applies: for MIC: Pseudomonas aeruginosa, mode of 6 replicates. The method, boiled down: (§1)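 Broth microdilution in MHB, 2-fold 12-point series from 128 or 64 down to 0.06 or 0.03 μg mL^−1, 5 × 10^5 CFU mL^−1. Extra runs in CAMHB per CLSI and in MHB with 1% agarose; n ≥ 6.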
The subject of series [2] is A. baumannii. The experiment in a line: microbe, parasite or virus in culture. The following applies: for MIC: Acinetobacter baumannii, mode of 6 replicates. The method, boiled down: as §1
For series [3], the system named is S. enterica Typhi. In words: microbe, parasite or virus in culture. Particulars: for MIC: Salmonella enterica, ATCC14028 / TYPHI, read-out: BMD MIC. In outline:
as §1

Series [4] relates to E. coli. The experiment in a line: microbe, parasite or virus in culture. The following applies: Escherichia coli. In outline: as §1
For series [5], the system named is K. pneumoniae. The experiment in a line: microbe, parasite or virus in culture. Particulars: for MIC: Klebsiella pneumoniae, mode of 6 replicates. In outline: as §1
Series [6] concerns P. aeruginosa clinical isolates. In words: microbe, parasite or virus in culture. The protocol: (§2) The in vitro activity of AA139 and comparator antimicrobials was determined in two panels of clinical isolates of E. coli, K. pneumoniae, P. aeruginosa, and A. baumannii (Supplementary Table 3), and MIC90 presented. The US panel consisted of 331 clinical isolates from 2010 to 2012. It was tested by BMD in accordance with the CLSI guidelines (M07-A9, 2012)[39]. […] AA139 was diluted in 0.01% acetic acid/0.1% bovine serum albumin. Sterile polypropylene culture cluster round-bottom 96-well plates (Costar # 3879) were used for testing. The worldwide panel consisted of 445 clinical isolates from 2011 to 2013, geographically divided into Asia, Europe, North America, and Rest of World (Middle East, Latin America, Africa, and South Pacific) with each region representing ~25% of the isolates. It was tested by broth microdilution in accordance with the CLSI guidelines (M07-A9, 2012)[39]. […] The test media was CAMHB (Becton Dickinson). AA139 and polymyxin B were tested in media supplemented with 0.002% Tween 80 (Calbiochem). MIC90 values were calculated for all or subsets of the isolates. MIC correlation between AA139 and colistin was analyzed with data from the US panel.

Series [7] relates to K. pneumoniae clinical isolates. The experiment in a line: microbe, parasite or virus in culture. The protocol: as §2
The test system of series [8] is A. baumannii clinical isolates. In words: microbe, parasite or virus in culture. The protocol: as §2
Series [9] concerns E. coli clinical isolates. In words: microbe, parasite or virus in culture. The procedure: as §2
Series [10] concerns E. coli. On the set-up: method as in Hasman H, et al. Euro. Surveill. (2015) 20:49. Particulars: E. coli ESBL20150072, mcr-1 pos; ESBL; CAMHB; comparator antibiotics; ref Hasman H, et al. Euro. Surveill. (2015) 20:49; cited from earlier work.
Series [11] has as its system L. monocytogenes. The experiment in a line: microbe, parasite or virus in culture. In outline:
as §1

For series [12], the system named is B. subtilis. The experiment in a line: microbe, parasite or virus in culture. The following applies: for MIC: Bacillus subtilis. In outline: as §1
The test system of series [13] is S. aureus. The experiment in a line: microbe, parasite or virus in culture. Particulars: Staphylococcus aureus, mode of 6 replicates. The method, boiled down: as §1
The subject of series [14] is human erythrocytes (HRBC). It is filed as cell-based.
The test system of series [15] is C. neoformans. The experiment in a line: microbe, parasite or virus in culture.
In series [16] the test system is C. albicans. In words: microbe, parasite or virus in culture.
Series [17] concerns E. coli ATCC 25922. In words: microbe, parasite or virus in culture. The format is cell-based, Escherichia coli. Particulars: ATCC 25922. In outline: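 Broth microdilution MIC in Mueller Hinton broth, 12-point 2-fold series from 128 or 64 down to 0.06 or 0.03 μg mL^−1, 5 × 10^5 CFU mL^−1 inoculum. Read visually after 18-20 h at 37 °C without shaking; n ≥ 6. Additional tests in CAMHB, and in MHB with 1% agarose.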

Series [18] concerns HK-2 human kidney proximal tubule cells. The experiment in a line: in vitro.
Series [19] in a line: in vitro. Particulars: human.
The subject of series [20] is HepG2 liver hepatocellular carcinoma cells. The experiment in a line: in vitro.
For series [21], the system named is HEK-293 human embryonic kidney cells. In words: in vitro.
Series [22] has as its system human primary hepatocytes. The experiment in a line: Cell viability, human primary hepatocytes (Eurofins Panlabs). It is filed as cell-based. The following applies: Homo sapiens, Hepatocyte; plateable cryopreserved hepatocytes, alamarBlue, 24 h 37 °C, fluorimetry; 8-point 0.1–300 μM. The procedure:
Cell viability of human primary hepatocytes against AA139 was assessed by fluorometric readout of Alamar Blue following 24 h incubation at 37 °C of human plateable cryopreserved hepatocytes and AA139 as an 8-point dose response, 0.1–300 μM, as described by Nociari et al.[41]. Cell viability was calculated as a percentage of the control cells and plotted versus concentration using Prism 8 Software. The IC50 value was determined by non-linear regression analysis of the concentration–response curve using the Hill equation. Assay was performed by Eurofins Pharma Discovery Services (Panlabs), St Charles, MO, USA, study number 100049990. Source data are provided as a source data file.
(In general: The colour change of resazurin is a common sign of viable cells or microbes.)

Setting [23] is: Worldwide isolates 2011-2013, P. aeruginosa n = 111.
The mark [24] stands for this setting: Worldwide isolates 2011-2013, K. pneumoniae n = 114.
[25] abbreviates: Worldwide isolates 2011-2013, A. baumannii n = 108.
Setting [26] is: Worldwide isolates 2011-2013, E. coli n = 112.

On to `CC(C)(O/N=C(\C(=O)N[C@@H]1C(=O)N2C(C(=O)[O-])=C(C[n+]3ccccc3)CS[C@H]12)c1csc(N)n1)C(=O)O` [Ceftazidime, ceftazidime, reference compound], for which the MIC was 8 µg/mL (≈ 14.6 µM) in series [1] (ATCC27853, read-out: BMD MIC, P. aeruginosa ATCC 27853 control strain, CAMHB); more than 64 µg/mL in series [1] (read-out: BMD MIC, P. aeruginosa FADDI-070, MDR, PmxR, MHB/CAMHB); 16 µg/mL (≈ 29.3 µM) in series [2] (ATCC19636, read-out: BMD MIC, A. baumannii ATCC 19636 type strain, CAMHB); more than 64 µg/mL in series [2] (read-out: BMD MIC, A. baumannii Greece CI, XDR, PmxR, MHB); not above 0.5 µg/mL in series [3]; 1 µg/mL (≈ 1.83 µM) in series [4] (ATCC25922, read-out: BMD MIC, E. coli ATCC 25922 FDA control strain, CAMHB, mode of 6 replicates). Further, the MIC in series [4] (ATCC700926 / MG1655, read-out: BMD MIC) is not above 0.5 µg/mL; in series [4] (ATCC700928, read-out: BMD MIC, E. coli ATCC 700928 CFT073 UPEC, CAMHB, mode of 6 replicates) it was not above 0.25 µg/mL; in [4] (read-out: BMD MIC), 16 µg/mL (≈ 29.3 µM); in [5] (ATCC13883, read-out: BMD MIC, K. pneumoniae ATCC 13883 type strain (polymyxin/colistin heteroresistant), MHB), 1 µg/mL (≈ 1.83 µM); in series [5] (ATCC700603, read-out: BMD MIC, K. pneumoniae ATCC 700603 (K6), MDR, OXA-2/SHV-18, CAMHB), more than 64 µg/mL; in [5] (BAA2146, read-out: BMD MIC, K. pneumoniae BAA-2146, MDR, ESBL, NDM-1 pos, MHB) it was more than 64 µg/mL. In addition, the MIC in [5] (read-out: BMD MIC, K. pneumoniae Greece CI 8_GR_13, XDR, KPC-2, PmxR, MHB) is more than 64 µg/mL. In addition, the MIC90 was 32 µg/mL (≈ 58.5 µM) in series [6] (Pseudomonas aeruginosa, US isolates 2010–2012, P. aeruginosa Non-MDR, n = 41); more than 32 µg/mL in series [6] (Pseudomonas aeruginosa, US isolates 2010–2012, P. aeruginosa XDR, n = 37); more than 32 µg/mL in series [6] (setting [23]); 1 µg/mL (≈ 1.83 µM) in series [7] (Klebsiella pneumoniae, US isolates 2010–2012, K. pneumoniae Non-MDR, n = 24); more than 32 µg/mL in series [7] (Klebsiella pneumoniae, US isolates 2010–2012, K. pneumoniae XDR, n = 55); more than 32 µg/mL in [7] (setting [24]). For the same compound, the MIC90 is more than 32 µg/mL in series [8] (Acinetobacter baumannii); more than 32 µg/mL in series [8] (US isolates 2010–2012, A. baumannii MDR, n = 19); more than 32 µg/mL in series [8] (US isolates 2010–2012, A. baumannii XDR, n = 31); more than 32 µg/mL in [8] (setting [25]); 32 µg/mL (≈ 58.5 µM) in [9] (Escherichia coli); more than 32 µg/mL in series [9] (Escherichia coli, US isolates 2010–2012, E. coli MDR, n = 31). Further, the MIC90 in series [9] (Escherichia coli, US isolates 2010–2012, E. coli Non-MDR, n = 24) is 2 µg/mL (≈ 3.66 µM); in series [9] (setting [26]) it was 32 µg/mL (≈ 58.5 µM). Besides, the MIC50 in [6] (setting [23]) is 4 µg/mL (≈ 7.32 µM); in series [7] (setting [24]), 1 µg/mL (≈ 1.83 µM); in series [8] (setting [25]), more than 32 µg/mL; in [9] (setting [26]), 0.25 µg/mL (≈ 0.457 µM). The “BMD MIC” value in [10] was more than 16 µg/mL.

For `CN[C@H](CC(C)C)C(=O)N[C@H]1C(=O)N[C@@H](CC(N)=O)C(=O)N[C@H]2C(=O)N[C@H]3C(=O)N[C@H](C(=O)N[C@H](C(=O)O)c4cc(O)cc(O)c4-c4cc3ccc4O)[C@H](O)c3ccc(c(Cl)c3)Oc3cc2cc(c3O[C@@H]2O[C@H](CO)[C@@H](O)[C@H](O)[C@H]2O[C@H]2C[C@](C)(N)[C@H](O)[C@H](C)O2)Oc2ccc(cc2Cl)[C@H]1O` [Vancomycin, reference compound], the MIC was 4 µg/mL (≈ 2.76 µM) in series [11] (Listeria monocytogenes, ATCC19112, read-out: BMD MIC); 0.25 µg/mL (≈ 0.173 µM) in series [12] (ATCC6051 / NRS744, read-out: BMD MIC); 0.25 µg/mL (≈ 0.173 µM) in [12] (ATCC6633 / NRS231, read-out: BMD MIC); more than 64 µg/mL in [3]; 2 µg/mL (≈ 1.38 µM) in series [13] (ATCC25923|MSSA, read-out: BMD MIC, S. aureus ATCC 25923 MSSA, CAMHB); 1 µg/mL (≈ 0.69 µM) in series [13] (ATCC25923|MSSA, read-out: BMD MIC, S. aureus ATCC 25923 MSSA, MHB). Besides, in [13] (ATCC43300|MRSA, read-out: BMD MIC, S. aureus ATCC 43300 MRSA, MHB), the MIC turned out to be 1 µg/mL (≈ 0.69 µM).

For the compound `CC(C)[C@@H]1NC(=O)CNC(=O)[C@H](CC(N)=O)NC(=O)[C@H](CCCNC(=N)N)NC(=O)[C@H](Cc2ccc(O)cc2)NC(=O)[C@H](C(C)C)NC(=O)[C@@H]2CSSC[C@H](NC(=O)[C@H](C(C)C)NC(=O)[C@H](CCCNC(=N)N)NC1=O)C(=O)N[C@@H](Cc1ccc(O)cc1)C(=O)N[C@@H](CCCNC(=N)N)C(=O)N[C@@H](CCCNC(=N)N)C(=O)N[C@H](C(=O)N[C@@H](CC(N)=O)C(=O)O)CSSC[C@H](NC(=O)[C@H](Cc1ccccc1)NC(=O)CN)C(=O)N[C@@H](Cc1c[nH]c3ccccc13)C(=O)N[C@@H](Cc1ccc(O)cc1)C(=O)N[C@@H](C(C)C)C(=O)N2` [Arenicin-3] (HELM PEPTIDE1{G.F.C.W.Y.V.C.V.Y.R.N.G.V.R.V.C.Y.R.R.C.N}$PEPTIDE1,PEPTIDE1,3:R3-20:R3|PEPTIDE1,PEPTIDE1,7:R3-16:R3$$$V2.0), the “Heamolysis HC10, Mean” value in series [14] stood at 204 µg/mL. Further, the “BMD MIC” value is 1 µg/mL in series [15]; more than 32 µg/mL in [16]; more than 64 µg/mL in [16] (24 h); 1 µg/mL in [1]; 1 µg/mL in series [2]; 8 µg/mL in series [11]. The “BMD MIC” value came out at 8 µg/mL in series [12], 2 µg/mL in [3] (Typhi) and 1 µg/mL in [5]. Moreover, the “MIC, MHB” value in series [17] came to 1 µg/mL (≈ 0.383 µM). Also, the “CC50 HK2, Mean” value in [18] amounted to 170 µg/mL (≈ 65.1 µM). Further, the figures for the CC50 at 24 h in series [19] (HEK-293 cells) and in [19] (HK-2 cells) were 271 µg/mL (≈ 104 µM) and 170 µg/mL (≈ 65.1 µM), respectively. The “CC50 HepG2” value was more than 300 µg/mL in series [20] and more than 300 µg/mL in series [20] (human, HepG2 cells, 24 h). Moreover, the “CC50 HepG2, Mean” value in series [20] is more than 300 µg/mL. Also, in series [21], the “CC50 HEK293, Mean” value was determined as 271 µg/mL (≈ 104 µM).

As for `CN(C)CCCN1c2ccccc2Sc2ccc(Cl)cc21` [Chlorpromazine, reference compound], the IC50 in series [22] is 35 µM. This counts as double-digit micromolar.

The record behind these values is article PMC7311426, “An amphipathic peptide with antibiotic activity against multidrug-resistant Gram-negative bacteria” (Nature Communications, 2020).
